Values joined by “and” are separate entries in the source; they are usually repeats but may differ in a detail not shown here. Equal values may be shown once.
Key:
adult volunteers [1] = assay: Test 3: whole blood transit time by MC-FAN after oral N-acetylglucosamine; format: in vivo, human; details: mean before administration 60.9 sec
Procedure: From each of adult volunteers (A: male, B: female, C: female, D: female, E: male) who had taken usual breakfast, a first blood sample (10 mL) was collected at 1:00 p.m. Immediately after the collection of the blood sample, 1.5 g of glucosamine hydrochloride with 50 mL of water was administered to the volunteer. Blood samples (10 mL, each; 5% heparinated) were collected upon elapsed time of 30 min, 60 min and 90 min after the administration. The fluidity of each blood sample was determined by a microchannel array flow analyzer (MC-FAN) which is a capillary model fabricated by VLSI technology. The determination was carried out as will be described below. […] A transit time necessary for 100 μL of the whole blood sample to pass through the microchannels was measured. Using a transit time necessary for 100 μL of physiological saline to pass through the microchannels as measured just before the blood measurement, the transit time of the whole blood sample was converted in accordance with the following equation: Transit time of the whole blood x 12 sec/transit time of the physiological saline to obtain a value which would have been available if the transmit time of physiological saline had been 12 sec. The value was recorded as a blood transit time. […]

adult volunteers [2] = assay: Test 1: blood flow improving effects, whole blood transit time by microchannel array flow analyzer (MC-FAN) after oral glucosamine hydrochloride; format: in vivo, human; details: for Transit time: 100 μL heparinated whole blood; for Transit time, Mean: mean of 5 volunteers, mean before administration 50.3 sec
Procedure: From each of adult volunteers (A: male, B: female, C: female, D: female, E: male) who had taken usual breakfast, a first blood sample (10 mL) was collected at 1:00 p.m. Immediately after the collection of the blood sample, 1.5 g of glucosamine hydrochloride with 50 mL of water was administered to the volunteer. Blood samples (10 mL, each; 5% heparinated) were collected upon elapsed time of 30 min, 60 min and 90 min after the administration. The fluidity of each blood sample was determined by a microchannel array flow analyzer (MC-FAN) which is a capillary model fabricated by VLSI technology. The determination was carried out as will be described below. A fresh 5%-heparinated whole blood sample, which had been obtained by adding 0.5 part by weight of a 1,000 IU/mL heparin sodium solution to 9.5 parts by weight of the corresponding blood sample, was caused to flow through an array of 8,736 parallel microchannels of 7 μm in width, 30 μm in length and 4.5 μm in depth (Bloody 6-7) under 20 cmH2O suction by using the microchannel array flow analyzer (MC-FAN). A transit time necessary for 100 μL of the whole blood sample to pass through the microchannels was measured. Using a transit time necessary for 100 μL of physiological saline to pass through the microchannels as measured just before the blood measurement, the transit time of the whole blood sample was converted in accordance with the following equation: Transit time of the whole blood x 12 sec/transit time of the physiological saline to obtain a value which would have been available if the transmit time of physiological saline had been 12 sec. The value was recorded as a blood transit time. The results are shown in Table 1, including indices of whole blood transit times of the blood samples collected after the administration of the glucosamine hydrochloride based on those of the corresponding blood samples collected before the administration of glucosamine hydrochloride (% relative to an initial value of 100%).

Row | Compound | mean blood transit time (adult volunteers [1]; 30 min after administration as in Test 1) [s] | mean blood transit time (adult volunteers [1]; 1 hr after administration as in Test 1) | Index (%) of whole blood transit time relative to initial value of 100% (adult volunteers [2]; 30 min after oral 1.5 g) [%] | Index (%) of whole blood transit time relative to initial value of 100% (adult volunteers [2]; 60 min after oral 1.5 g) [%] | Transit time (adult volunteers [2]; individual volunteer E, 90 min after oral 1.5 g with 50 mL water) [s] | Transit time (adult volunteers [2]; individual volunteers A-E, 30 min after oral 1.5 g with 50 mL water, normalised to saline 12 sec, hydrochloride) | Transit time (adult volunteers [2]; individual volunteers A-E, 60 min after oral 1.5 g with 50 mL water, hydrochloride) | Transit time, Mean (adult volunteers [2]; 30 min after oral 1.5 g) [s] | Transit time, Mean (adult volunteers [2]; 60 min after oral 1.5 g) [s]
1 | CC(=O)N[C@H]1C(O)O[C@H](CO)[C@@H](O)[C@@H]1O (stereo partly drawn) [N-acetylglucosamine] | 36.5 | increased back to the value before the administration | – | – | – | – | – | – | –
2 | Cl.N[C@H]1C(O)O[C@H](CO)[C@@H](O)[C@@H]1O (stereo partly drawn) [glucosamine hydrochloride] | – | – | 70.0 | 67.1 | 31.6 | 35.3 s and 36.1 s and 28.6 s and 38.6 s and 37.1 s | 28.7 s and 37.1 s and 27.4 s and 42.3 s and 33.2 s | 35.1 | 33.7

From patent publication US20020032173A1, “Blood flow improvers and thrombosis preventives or remedies” (Koyo Chemical Co., Ltd., priority 2000, published 2002)
